Results on 1 compound are retold here after patent US10617705B1, “Isoquercitrin compositions” (priority 2019, dated 2020).

Structures are written as SMILES.

This series is described as follows: Stability of isoquercitrin (or catechin) in solution with L-arginine and sodium ascorbate at 50° C., by HPLC. Conditions: aqueous solution with L-arginine and sodium ascorbate; for amount of intact compound remaining, of the initial amount in the solution: HPLC. It is filed as physicochemical. On the procedure: An exemplary isoquercitrin/L-arginine mixture was prepared by mixing 0.01 mol isoquercitrin with an aqueous solution containing 0.02 mol L-arginine, heating the mixture to 80° C. until the isoquercitrin dissolved completely, and adding 0.001 mol sodium ascorbate. After cooling, the stability of isoquercitrin was tested by heating the mixture to 50° C. and quantifying by HPLC the amount of intact isoquercitrin remaining after 0 h, 5 h, and 24 h.

Regarding `O=c1c(O[C@@H]2O[C@H](CO)[C@@H](O)[C@H](O)[C@H]2O)c(-c2ccc(O)c(O)c2)oc2cc(O)cc(O)c12` [isoquercitrin], the “amount of intact compound remaining, of the initial amount in the solution” value amounted to 100% (5 h at 50° C.) and 98.1% (24 h at 50° C.). Besides, the compound degraded (after 24 h at 50° C.) turned out to be 1.9%.
